Laboratory results reported in the SangsterLogP compilation.

Assays:
[1] = method code SF-TN, from DOI: 10.3891/acta.chem.scand.05-0774
[2] = method code SF-CR, from DOI: 10.3891/acta.chem.scand.05-0774

| logP | SMILES | logP [1] | other results |
| --- | --- | --- | --- |
| – | O=C(O)CBr | 0.41 | – |
| – | COC(C)=O | – | logP [2]: 0.18 |
| – | CCC(Br)C(=O)O (centres undefined) | 1.42 | – |
| -1.31 | NCCO | – | – |
| -0.96 | CC(O)CN (centres undefined) | – | – |
| -0.82 | CC(O)CNCC(C)O (centres undefined) | – | – |
| – | CC(O)C(C)O (centres undefined) | – | logP [2]: -0.92 |
| – | O=C(O)CCCCCCCC(=O)O | 1.59 | – |
| -1.17 | C1CNCCN1 | – | – |
| – | CC(Br)C(=O)O (centres undefined) | 0.92 | – |
| -1.43 | OCCNCCO | – | – |
| – | COCOC | – | logP [2]: 0 |
| – | O=C(O)CC(O)C(=O)O (centres undefined) | -1.26 | – |
| – | CC(C)(O)C(=O)O | -0.36 | – |
